Consider ten compounds from ChEMBL document CHEMBL5465560, “Selectivity Literature for EUbOPEN Chemogenomic Library” (2024).

Experiment [1] addresses Mitogen-activated protein kinase kinase kinase 10 (Homo sapiens) (UniProt Q02779). The experiment can be described thus: Selectivity interaction (KinomeScan (DiscoverX)) EUB0001619a MAP3K10. The following applies: at 1 µM.
Experiment [2] deals with Serine/threonine-protein kinase MARK2 (Homo sapiens) (UniProt Q7KZI7). The following applies: at 10 µM.
Chain of Serine/threonine-protein kinase MARK2 (Homo sapiens) (Q7KZI7 whole entry): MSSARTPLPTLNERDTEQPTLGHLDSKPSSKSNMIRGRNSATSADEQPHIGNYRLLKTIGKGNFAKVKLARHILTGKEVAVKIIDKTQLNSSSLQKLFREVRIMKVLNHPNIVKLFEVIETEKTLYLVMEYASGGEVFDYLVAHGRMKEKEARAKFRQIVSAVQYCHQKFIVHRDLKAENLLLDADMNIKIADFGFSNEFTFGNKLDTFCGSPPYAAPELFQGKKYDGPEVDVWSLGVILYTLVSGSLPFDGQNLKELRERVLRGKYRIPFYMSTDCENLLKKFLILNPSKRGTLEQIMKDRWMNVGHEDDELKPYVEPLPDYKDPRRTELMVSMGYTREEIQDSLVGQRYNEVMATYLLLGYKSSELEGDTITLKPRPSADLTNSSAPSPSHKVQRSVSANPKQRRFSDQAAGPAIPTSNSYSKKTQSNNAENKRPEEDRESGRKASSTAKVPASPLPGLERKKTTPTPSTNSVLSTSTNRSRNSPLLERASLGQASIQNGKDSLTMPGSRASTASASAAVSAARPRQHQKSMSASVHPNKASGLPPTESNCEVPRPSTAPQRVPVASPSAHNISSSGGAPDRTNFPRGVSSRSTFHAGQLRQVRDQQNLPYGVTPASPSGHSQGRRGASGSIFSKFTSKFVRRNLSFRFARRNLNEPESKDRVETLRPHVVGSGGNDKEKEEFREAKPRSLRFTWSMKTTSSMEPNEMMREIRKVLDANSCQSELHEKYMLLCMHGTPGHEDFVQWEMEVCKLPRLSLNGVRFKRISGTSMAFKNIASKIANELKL
The target in experiment [3] is T1, Hormonally up-regulated neu tumor-associated kinase (Homo sapiens) (UniProt P57058).
T1 sequence (whole entry): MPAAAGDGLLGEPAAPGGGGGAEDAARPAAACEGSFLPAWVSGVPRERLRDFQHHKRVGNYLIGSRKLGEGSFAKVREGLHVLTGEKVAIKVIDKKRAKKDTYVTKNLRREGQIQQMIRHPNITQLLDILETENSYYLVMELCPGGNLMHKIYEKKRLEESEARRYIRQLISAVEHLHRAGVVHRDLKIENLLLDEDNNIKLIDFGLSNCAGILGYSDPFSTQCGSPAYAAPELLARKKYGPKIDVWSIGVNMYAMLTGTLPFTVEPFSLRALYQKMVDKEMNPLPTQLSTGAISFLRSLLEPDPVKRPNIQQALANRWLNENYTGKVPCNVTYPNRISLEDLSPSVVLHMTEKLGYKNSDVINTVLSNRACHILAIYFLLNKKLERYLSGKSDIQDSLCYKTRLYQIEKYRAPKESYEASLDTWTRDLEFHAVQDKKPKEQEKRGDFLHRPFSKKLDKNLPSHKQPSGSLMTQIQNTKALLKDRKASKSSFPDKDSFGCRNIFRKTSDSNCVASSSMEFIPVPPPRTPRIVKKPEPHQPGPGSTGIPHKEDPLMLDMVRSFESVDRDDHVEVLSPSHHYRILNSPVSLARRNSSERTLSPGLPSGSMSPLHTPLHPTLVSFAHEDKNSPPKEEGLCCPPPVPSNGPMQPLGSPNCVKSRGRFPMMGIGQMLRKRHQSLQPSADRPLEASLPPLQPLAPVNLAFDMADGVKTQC
Briefly: Selectivity interaction (KinomeScan (DiscoverX)) EUB0000045b HUNK.

Experiment [4] addresses NUAK family SNF1-like kinase 1 (Homo sapiens, UniProt O60285). Briefly: Selectivity interaction (Enzymatic assay) EUB0001199aCl NUAK1.
For experiment [5], the target named is T2, Membrane-associated tyrosine- and threonine-specific cdc2-inhibitory kinase (Homo sapiens) (UniProt Q99640).
T2 sequence (whole entry): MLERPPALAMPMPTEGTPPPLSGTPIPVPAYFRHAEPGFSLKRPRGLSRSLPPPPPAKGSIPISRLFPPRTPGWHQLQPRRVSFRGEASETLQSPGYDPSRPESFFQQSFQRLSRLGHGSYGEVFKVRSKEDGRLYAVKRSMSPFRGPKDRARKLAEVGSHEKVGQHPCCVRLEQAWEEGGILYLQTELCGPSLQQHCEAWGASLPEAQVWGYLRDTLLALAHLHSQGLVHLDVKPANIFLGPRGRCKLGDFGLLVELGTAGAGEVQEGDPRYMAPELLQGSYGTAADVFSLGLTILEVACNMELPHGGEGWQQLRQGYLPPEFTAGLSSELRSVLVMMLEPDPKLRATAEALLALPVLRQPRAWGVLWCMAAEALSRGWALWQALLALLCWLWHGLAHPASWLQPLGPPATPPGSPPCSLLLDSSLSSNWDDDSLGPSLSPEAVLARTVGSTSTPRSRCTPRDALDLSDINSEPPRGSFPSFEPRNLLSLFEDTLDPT
Briefly: Selectivity interaction (ProQinase) EUB0000171b PKMYT1.

For experiment [6], the target named is Casein kinase II subunit alpha' (Homo sapiens) (UniProt P19784). Briefly: Selectivity interaction (KinomeScan (DiscoverX)) EUB0001049a CSNK2A2. The following applies: at 1 µM.
Chain of Casein kinase II subunit alpha' (Homo sapiens) (P19784 whole entry, looked up): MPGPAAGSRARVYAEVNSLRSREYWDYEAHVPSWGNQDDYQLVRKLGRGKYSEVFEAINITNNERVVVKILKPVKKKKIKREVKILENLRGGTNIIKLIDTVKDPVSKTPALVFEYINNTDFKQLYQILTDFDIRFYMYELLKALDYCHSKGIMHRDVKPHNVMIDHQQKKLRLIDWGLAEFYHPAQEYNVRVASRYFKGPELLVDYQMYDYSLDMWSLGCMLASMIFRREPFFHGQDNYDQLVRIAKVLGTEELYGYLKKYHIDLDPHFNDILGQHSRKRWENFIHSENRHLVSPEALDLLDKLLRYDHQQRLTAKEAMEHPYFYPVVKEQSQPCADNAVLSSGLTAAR
Experiment [7] has as its target Mitogen-activated protein kinase 7 (Homo sapiens) (UniProt Q13164). Briefly: Selectivity interaction (Kinase panel (Carna Biosciences)) EUB0001542aTs MAPK7. The following applies: at 1 µM.
The next experiment has as its target CREB-binding protein (Homo sapiens, UniProt Q92793). Briefly: Selectivity interaction (Bromodomain panel (DSF asssay)) EUB0000270b CREBBP.
In experiment [8] the target is Serine/threonine-protein kinase MARK2 (Homo sapiens) (UniProt Q7KZI7). The experiment can be described thus: Selectivity interaction (KinomeScan (DiscoverX)) EUB0000618a MARK2. The following applies: at 10 µM.
Experiment [9] addresses T3, Tyrosine-protein kinase ZAP-70 (Homo sapiens) (UniProt P43403).
T3 sequence (whole entry): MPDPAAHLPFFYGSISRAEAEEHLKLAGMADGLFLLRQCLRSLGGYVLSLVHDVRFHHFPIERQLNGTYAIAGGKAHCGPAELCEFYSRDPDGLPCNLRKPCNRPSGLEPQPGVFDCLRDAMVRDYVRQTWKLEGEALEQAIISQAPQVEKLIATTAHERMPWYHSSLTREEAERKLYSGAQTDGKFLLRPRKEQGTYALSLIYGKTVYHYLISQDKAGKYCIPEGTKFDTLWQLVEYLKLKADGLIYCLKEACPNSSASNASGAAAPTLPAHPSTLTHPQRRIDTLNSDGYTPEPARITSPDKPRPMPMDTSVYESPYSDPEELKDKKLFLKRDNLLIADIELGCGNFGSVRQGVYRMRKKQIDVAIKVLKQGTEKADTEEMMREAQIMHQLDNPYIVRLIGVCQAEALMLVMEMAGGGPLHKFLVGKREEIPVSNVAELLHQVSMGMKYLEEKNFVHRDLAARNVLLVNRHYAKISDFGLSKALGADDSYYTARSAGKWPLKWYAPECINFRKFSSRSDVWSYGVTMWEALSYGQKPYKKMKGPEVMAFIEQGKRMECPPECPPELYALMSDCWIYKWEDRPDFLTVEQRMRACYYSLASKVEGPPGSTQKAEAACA
The experiment can be described thus: Selectivity interaction (Kinase panel (KiNativ target engagement assay in Jurkat cells)) EUB0001635a ZAP70. It counts as cell-based. The following applies: at 1 µM.

The structures appear in SMILES notation.

Chain of CREB-binding protein (Q92793 2-2442 limits assumed): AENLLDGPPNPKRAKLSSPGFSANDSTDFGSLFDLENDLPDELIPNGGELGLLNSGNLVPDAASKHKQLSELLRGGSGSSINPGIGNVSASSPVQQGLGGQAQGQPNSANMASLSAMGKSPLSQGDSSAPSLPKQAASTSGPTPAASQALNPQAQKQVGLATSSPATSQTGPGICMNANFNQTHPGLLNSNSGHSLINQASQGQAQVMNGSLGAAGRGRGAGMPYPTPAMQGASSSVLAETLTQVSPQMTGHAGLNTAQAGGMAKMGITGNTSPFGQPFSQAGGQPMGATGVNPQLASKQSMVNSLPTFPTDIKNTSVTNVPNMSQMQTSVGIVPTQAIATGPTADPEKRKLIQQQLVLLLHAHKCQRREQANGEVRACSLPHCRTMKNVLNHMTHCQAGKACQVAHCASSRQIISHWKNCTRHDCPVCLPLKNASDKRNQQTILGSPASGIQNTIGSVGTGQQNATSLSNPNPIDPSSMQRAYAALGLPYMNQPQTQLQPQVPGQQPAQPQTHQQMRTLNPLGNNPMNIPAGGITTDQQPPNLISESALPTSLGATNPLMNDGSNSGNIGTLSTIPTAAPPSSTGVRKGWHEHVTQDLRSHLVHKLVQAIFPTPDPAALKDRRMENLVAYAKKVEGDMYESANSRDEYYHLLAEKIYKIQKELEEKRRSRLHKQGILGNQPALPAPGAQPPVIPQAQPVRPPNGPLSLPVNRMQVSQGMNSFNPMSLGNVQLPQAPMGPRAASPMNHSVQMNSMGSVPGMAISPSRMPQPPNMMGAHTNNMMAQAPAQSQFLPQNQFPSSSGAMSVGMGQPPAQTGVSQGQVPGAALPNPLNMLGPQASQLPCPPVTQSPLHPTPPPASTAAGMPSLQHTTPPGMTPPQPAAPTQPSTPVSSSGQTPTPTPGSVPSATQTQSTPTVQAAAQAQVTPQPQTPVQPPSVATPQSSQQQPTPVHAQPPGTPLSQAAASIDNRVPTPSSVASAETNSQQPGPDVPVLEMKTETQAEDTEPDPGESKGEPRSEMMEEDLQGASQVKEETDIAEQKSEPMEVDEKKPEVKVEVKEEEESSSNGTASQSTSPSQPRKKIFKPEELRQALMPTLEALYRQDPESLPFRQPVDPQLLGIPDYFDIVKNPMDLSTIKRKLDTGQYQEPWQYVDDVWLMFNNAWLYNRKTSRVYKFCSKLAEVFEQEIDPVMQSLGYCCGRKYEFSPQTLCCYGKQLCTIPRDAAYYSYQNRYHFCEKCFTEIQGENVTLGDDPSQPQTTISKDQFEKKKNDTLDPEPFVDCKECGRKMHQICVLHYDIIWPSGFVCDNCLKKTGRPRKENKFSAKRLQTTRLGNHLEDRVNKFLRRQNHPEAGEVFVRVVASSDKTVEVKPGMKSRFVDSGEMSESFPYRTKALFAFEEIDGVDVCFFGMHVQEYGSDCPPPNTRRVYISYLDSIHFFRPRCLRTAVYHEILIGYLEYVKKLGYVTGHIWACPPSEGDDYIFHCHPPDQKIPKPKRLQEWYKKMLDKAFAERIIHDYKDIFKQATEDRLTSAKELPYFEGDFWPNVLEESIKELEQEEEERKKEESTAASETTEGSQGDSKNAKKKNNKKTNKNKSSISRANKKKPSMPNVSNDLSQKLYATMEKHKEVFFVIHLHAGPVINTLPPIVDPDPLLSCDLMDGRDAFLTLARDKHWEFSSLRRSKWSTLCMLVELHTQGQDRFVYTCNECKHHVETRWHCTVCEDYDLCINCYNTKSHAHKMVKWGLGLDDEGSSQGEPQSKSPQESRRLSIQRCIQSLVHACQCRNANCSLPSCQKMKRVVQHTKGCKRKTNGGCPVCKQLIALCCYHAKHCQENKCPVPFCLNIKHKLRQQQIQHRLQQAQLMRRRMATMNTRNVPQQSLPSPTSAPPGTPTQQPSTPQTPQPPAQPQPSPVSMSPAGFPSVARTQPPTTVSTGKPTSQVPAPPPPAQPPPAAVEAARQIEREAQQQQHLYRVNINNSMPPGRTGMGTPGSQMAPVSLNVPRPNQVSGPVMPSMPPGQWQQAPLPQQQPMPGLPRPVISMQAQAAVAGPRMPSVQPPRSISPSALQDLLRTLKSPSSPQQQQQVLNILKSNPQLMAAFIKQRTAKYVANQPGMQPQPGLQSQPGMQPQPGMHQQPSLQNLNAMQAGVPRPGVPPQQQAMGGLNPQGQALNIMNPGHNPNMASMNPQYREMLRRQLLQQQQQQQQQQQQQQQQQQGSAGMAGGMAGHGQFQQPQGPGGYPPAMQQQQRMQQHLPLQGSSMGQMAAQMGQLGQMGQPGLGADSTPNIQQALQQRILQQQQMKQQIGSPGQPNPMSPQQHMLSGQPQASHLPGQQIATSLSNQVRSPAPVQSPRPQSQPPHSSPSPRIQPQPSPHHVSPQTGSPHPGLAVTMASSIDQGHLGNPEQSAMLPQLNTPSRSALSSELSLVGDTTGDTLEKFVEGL
Chain of Mitogen-activated protein kinase kinase kinase 10 (Homo sapiens) (Q02779 whole entry, looked up): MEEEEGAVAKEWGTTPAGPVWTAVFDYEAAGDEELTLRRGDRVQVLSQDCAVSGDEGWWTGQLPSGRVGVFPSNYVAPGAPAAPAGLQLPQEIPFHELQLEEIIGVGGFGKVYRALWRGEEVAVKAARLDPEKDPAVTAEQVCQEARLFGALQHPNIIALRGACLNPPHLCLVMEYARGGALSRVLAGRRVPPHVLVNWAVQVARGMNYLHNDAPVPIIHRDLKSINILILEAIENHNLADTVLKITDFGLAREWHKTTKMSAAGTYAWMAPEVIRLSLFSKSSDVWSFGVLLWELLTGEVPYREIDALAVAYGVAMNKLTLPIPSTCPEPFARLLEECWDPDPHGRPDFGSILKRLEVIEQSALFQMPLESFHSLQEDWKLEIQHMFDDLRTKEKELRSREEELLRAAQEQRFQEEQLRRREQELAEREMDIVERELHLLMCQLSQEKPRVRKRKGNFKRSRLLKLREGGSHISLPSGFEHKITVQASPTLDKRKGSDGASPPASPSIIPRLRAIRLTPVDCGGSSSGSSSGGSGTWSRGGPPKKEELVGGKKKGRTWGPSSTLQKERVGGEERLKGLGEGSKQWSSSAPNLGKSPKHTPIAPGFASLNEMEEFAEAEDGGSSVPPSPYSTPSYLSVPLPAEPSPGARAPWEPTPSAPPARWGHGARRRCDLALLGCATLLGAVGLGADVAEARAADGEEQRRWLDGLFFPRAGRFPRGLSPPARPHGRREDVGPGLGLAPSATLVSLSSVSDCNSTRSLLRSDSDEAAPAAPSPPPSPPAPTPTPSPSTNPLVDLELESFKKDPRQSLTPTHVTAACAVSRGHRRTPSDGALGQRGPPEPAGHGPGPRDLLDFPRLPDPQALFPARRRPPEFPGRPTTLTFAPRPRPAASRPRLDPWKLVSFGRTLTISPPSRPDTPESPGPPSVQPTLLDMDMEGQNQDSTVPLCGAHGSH

`N#Cc1cccc(-c2c[nH]c3ncnc(N4CCOCC4)c23)c1` yielded a % of control in [1] of 100%.
As for `CCN(CC)CCCCNc1ncc2cc(-c3cc(OC)cc(OC)c3)c(NC(=O)NC(C)(C)C)nc2n1`, the % of control in [2] came out at 100%.
On to `C=CC(=O)Nc1cc(-n2c(=O)ccc3cnc4ccc(-c5ccc(NS(C)(=O)=O)cc5)cc4c32)ccc1C`, for which the % of control in experiment [3] (at 1 µM) was 85%; in experiment [3] (at 10 µM), 100%.
The IC50 is the concentration needed to halve the response being measured. Read a high IC50 as a need for much substance. On to `CN1Cc2nccc(-c3cn(C)nc3-c3ccc(F)cc3)c2C1=O`, for which the half-maximal inhibitory concentration (IC50) in experiment [4] was 10.2 µM.
`C=CC(=O)Nc1cccc(C(=O)Nc2ccc(Nc3cc(-c4[nH]c(SC)nc4C)ccn3)cc2)c1`: the % of control came to 74% in experiment [5] (at 1 µM) and 56% in experiment [5] (at 5 µM).
`COc1cc(Nc2nc(C)cc(-c3cnn4nc(OC)ccc34)n2)cc(C(F)(F)F)c1` registered a % of control in experiment [6] of 59%.
`Cn1cc(Nc2nccc(N3CC4CCC(C3)N4C(=O)[C@@H]3CC3(F)F)n2)cn1` yielded a % of inhibition in [7] of 63%.
For the compound `Cc1cc(CN)cc(C)c1-c1ncn(C)c1-c1cncn1C`, the dTM at CREB-binding protein was -1.89 K.
As to `O[C@H]1CC[C@H](Nc2ncc3nc(Nc4c(F)cc(F)cc4F)n([C@H]4CCOC4)c3n2)CC1`, the % of control in experiment [8] was 100%.
For `C=CC(=O)Nc1ccc(C(=O)Nc2[nH]nc3c2CN(C(=O)N[C@H](CN(C)C)c2ccccc2)C3(C)C)cc1`, the % of engagement in experiment [9] (Selectivity number of off-targets 0.0, Selectivity number of targets 233.0, Source Knowledge https://www.sciencedirect.com/science/article/pii/S2451945619300674?via%3Dihub) was -13.8%; in experiment [9], -8.5%.
